The text below walks through data of patent publication US12286435B2, “Compound having benzo seven-membered ring structure, preparation method therefor, and use thereof” (BIONNA (BEIJING) MEDICAL TECHNOLOGY CO., LTD., priority 2019, dated 2025).

Several values for one entry are separate records, joined by “and”; a condition that tells them apart may be missing. Equal entries are not always repeated. Where two headings read alike, the source gives them in different places.

One assay concerns the target BRD4 BD1 protein (Homo sapiens (Human), UniProt O60885). Briefly: Fluorescence polarization binding affinity (Ki) with BRD4 BD1 protein.
Another assay addresses BRD4 BD2 protein (Homo sapiens (Human), UniProt O60885). Briefly: Fluorescence polarization binding affinity (Ki) with BRD4 BD2 protein.
The subject of assay [1] is multiple myeloma MM.1S cell line. Put plainly: Cell viability (CCK-8), multiple myeloma MM.1S. In kind it is cell-based. As to conditions: Homo sapiens, MM1.S, 96 h, MM.1S cells, 4 days, CCK-8, 50% inhibition of cell growth. The procedure: 3. Determination of cell viability of the compound
The sample to be tested was dissolved with 100% dimethyl sulfoxide to prepare a 20 mM stock solution of the compound, which was diluted with 100% dimethyl sulfoxide to the highest compound concentration required for the experiment (2.5 mM).
First, 145 uL of a complete cell culture medium was added to wells B1-G1 of a 96-well flat-bottomed tansparent cell culture plate, and 100 uL of the complete medium was added to wells B2-G12, respectively. Then, 5 uL of the 2.5 mM solution of the compound was added to wells B1-D1 and E1-G1 respectively, and then diluted gradiently by 3-folds to B12-D12 and E12-G12 in sequence. Finally, 50 uL of the solution of the cells to be tested was added to each well, with about 3000-5000 cells per well, and a total volume of 150 uL per well.
In the experiment, in addition to the tested compound, two other control groups were set up: 1) a control group adding the cells and the complete medium, but without adding the compound; 2) a control group adding the complete medium only, without adding the cells and the compound. The 96-well plate was placed in a 37° C. cell culture incubator containing 5% carbon dioxide for 4 days, added with 15 uL of a CCK-8 reagent per well, and then incubated at 37° C. for 2-4 hours. The 96-well plate was read on a TECAN microplate reader, and the absorbance value at 450 nm wavelength was taken.
The effect of different concentrations of the compound on cell viability was calculated by the following equation: [absorption value of the experimental group−absorption value of pure cell culture medium without the cells or the compound]/[absorption value of the control group with the tumor cells but no testing compound−absorption value of pure cell culture medium without the cell or the compound]×100%.
The above data were precessed by software, and the IC50 value was the concentration of the compound corresponding to the 50% inhibition rate of cell growth.
Based on the above test method of the compound on cell viability, a variety of […] cancer cell lines were tested, using multiple myeloma MM.1S, breast cancer MDA-MB-231 and leukemia MV4-11 cell lines as exemples. Using this test method, the IC50 values of partial compounds in the examples of the present invention measured in multiple myeloma MM.1S, breast cancer MDA-MB-231 cell lines and leukemia MV4-11 cell lines were shown in Table 2.

Where [2] appears, read: fluorescence polarization, Ki calculated from IC50.

On to `COc1ccc2c(c1)C(Nc1ccc(C)cc1)CCc1onc(C)c1-2` (stereo not shown) [BB188, 8-methoxy-1-methyl-N-(p-tolyl)-5,6-dihydro-4H-benzo[6,7]cyclohepta[1,2-d]isoxazol-6-amine], for which the Ki is 94.2 nM at BRD4 BD1 protein (setting [2]) and 41.4 nM at BRD4 BD2 protein (setting [2]). In assay [1], this compound returned a half-inhibitory concentration (IC50) of 805 nM.

Take `COc1ccc2c(c1)C(Nc1ccc(F)cc1)CCc1onc(C)c1-2` (stereo not shown) [BB189, N-(4-fluorophenyl)-8-methoxy-1-methyl-5,6-dihydro-4H-benzo[6,7]cyclohepta[1,2-d]isoxazol-6-amine]: the inhibition constant Ki on BRD4 BD1 protein (setting [2]) is 172 nM; on BRD4 BD2 protein (setting [2]) it was 92.1 nM. This compound had an IC50 in assay [1] of 230 nM.

Take `CCc1nnn2c1-c1ccc(-c3cnn(C)c3)cc1C(Nc1ccc(Cl)cc1)CC2` (stereo not shown) [BE02, N-(4-chlorophenyl)-1-ethyl-9-(1-methyl-1H-pyrazol-4-yl)-6,7-dihydro-5H-benzo[c][1,2,3]triazolo[1,5-a]azepin-7-amine]: the figures for the Ki at BRD4 BD1 protein (setting [2]) and on BRD4 BD2 protein (setting [2]) were 128 nM and 42.8 nM, respectively. This compound also yielded an IC50 in assay [1] of 138 nM.

On to `Cc1nnn2c1-c1ccc(-c3cnn(C)c3)cc1C(Nc1ccc(Cl)cc1)CC2C` (stereo not shown) [BE25, N-(4-chlorophenyl)-1,5-dimethyl-9-(1-methyl-1H-pyrazol-4-yl)-6,7-dihydro-5H-benzo[c][1,2,3]triazolo[1,5-a]azepin-7-amine], for which the figures for the Ki at BRD4 BD1 protein (setting [2]) and at BRD4 BD2 protein (setting [2]) were 20.8 nM and 9.4 nM, respectively. Besides, inhibition in assay [1] was half-maximal at 3.47 nM (IC50).

`Cn1cc(-c2ccc3c(c2)C(Nc2ccc(Cl)cc2)CCn2nnc(C4CC4)c2-3)cn1` (stereo not shown) [BE44, N-(4-chlorophenyl)-1-cyclopropyl-9-(1-methyl-1H-pyrazol-4-yl)-6,7-dihydro-5H-benzo[c][1,2,3]triazolo[1,5-a]azepin-7-amine]: the Ki on BRD4 BD1 protein (setting [2]) is 173 nM; on BRD4 BD2 protein (setting [2]) it was 48.1 nM. The compound also returned an IC50 in assay [1] of 989 nM.

With `Cc1nnn2c1-c1ccc(-c3cnn(C)c3)cc1C(Oc1ccc(F)cc1F)CC2` (stereo not shown) [BE95, 7-(2,4-difluorophenoxy)-1-methyl-9-(1-methyl-1H-pyrazol-4-yl)-6,7-dihydro-5H-benzo[c][1,2,3]triazolo[1,5-a]azepine], the inhibition constant (Ki) on BRD4 BD1 protein (setting [2]) is 577 nM; at BRD4 BD2 protein (setting [2]), 86.9 nM. Moreover, the concentration for half-maximal inhibition (IC50) in assay [1] turned out to be 3190 nM.

In the case of `Cc1cc(NC2CCn3nnc(C)c3-c3ccc(-c4cnn(C)c4)cc32)n(C)n1` (stereo not shown) [BE114, N-(1,3-dimethyl-1H-pyrazol-5-yl)-1-methyl-9-(1-methyl-1H-pyrazol-4-yl)-6,7-dihydro-5H-benzo[c][1,2, 3]triazolo[1,5-a]azepin-7-amine], the results for the Ki on BRD4 BD1 protein (setting [2]) and at BRD4 BD2 protein (setting [2]) were 45.4 nM and 7 nM, respectively. In assay [1], this compound returned an IC50 of 775 nM.

`Cc1nnn2c1-c1ccc(-c3cnn(C)c3)cc1C(Nc1ccnn1C)CC2` (stereo not shown) [BE118, 1-methyl-9-(1-methyl-1H-pyrazol-4-yl)-N-(1-methyl-1H-pyrazol-5-yl)-6,7-dihydro-5H-benzo[c][1,2,3] triazolo[1,5-a]azepin-7-amine]: the Ki on BRD4 BD1 protein (setting [2]) is 272 nM; at BRD4 BD2 protein (setting [2]) it was 23.6 nM. Also, the half-inhibitory concentration (IC50) in assay [1] was 604 nM.

`COC(=O)Cc1ccc(NC2CCn3nnc(C)c3-c3ccc(-c4cnn(C)c4)cc32)cc1` (stereo not shown) [LB38, methyl 2-(4-((1-methyl-9-(1-methyl-1H-pyrazol-4-yl)-6,7-dihydro-5H-benzo[c][1,2,3]triazolo[1,5-a]azepin-7-yl)amino)phenyl)acetate]: 32.9 nM corresponded to half-maximal inhibition in assay [1] (IC50).

Take `Cc1nnn2c1-c1ccc(-c3cnn(C)c3)cc1C(Nc1cccc(CCO)c1)CC2` (stereo not shown) [LB71, 2-(3-((1-methyl-9-(1-methyl-1H-pyrazol-4-yl)-6,7-dihydro-5H-benzo[c][1,2,3]triazolo[1,5-a]azepin-7-yl)amino)phenyl)ethanol]: the 50% inhibitory concentration (IC50) in assay [1] is 151 nM.

`Cc1nnn2c1-c1ccc(C3=CCN(C4CCCC4)CC3)cc1C(Nc1cccc(Cl)c1F)CC2` (stereo not shown) [RD179, N-(3-chloro-2-fluorophenyl)-9-(1-cyclopentyl-1,2,3,6-tetrahydropyridin-4-yl)-1-methyl-6,7-dihydro-5H-benzo[c][1,2,3]triazolol[1,5-a]azepin-7-amine 2,2,2-trifluoroacetate]: the results for the Ki at BRD4 BD1 protein (setting [2]) and on BRD4 BD2 protein (setting [2]) were 2810 nM and 32.6 nM, respectively.

Regarding `CC(=O)N1CC=C(c2ccc3c(c2)C(Nc2cccc(Cl)c2F)CCn2nnc(C)c2-3)CC1` (stereo not shown) [RD180, 1-(4-(7-((3-chloro-2-fluoro-phenyl)amino)-1-methyl-6,7-dihydro-5H-benzo[c][1,2,3]triazolo[1,5-a]azepin-9-yl)-3,6-dihydropyridin-1 (2H)-yl)ethan-1-one], the Ki on BRD4 BD1 protein (setting [2]) is 52 nM; at BRD4 BD2 protein (setting [2]) it was 12.1 nM.

Regarding `Cc1nnn2c1-c1ccc(C3=CCN(C(C)C)CC3)cc1[C@@H](Nc1cccc(Cl)c1)CC2` [RE10 (S), (7S)—N-(3-chlorophenyl)-9-(1-isopropyl-1,2,3,6-tetrahydropyridin-4-yl)-1-methyl-6,7-dihydro-5H-benzo[c][1,2,3]triazolo[1,5-a]azepin-7-amine 2,2,2-trifluoroacetate], the figures for the Ki on BRD4 BD1 protein (setting [2]) and on BRD4 BD2 protein (setting [2]) were 884 nM and 177 nM, respectively.

For `Cc1nnn2c1-c1ccc(C3=CCN(C(C)C)CC3)cc1C(Nc1cccc(Cl)c1F)CC2` (stereo not shown) [RE29, N-(3-chloro-2-fluorophenyl)-9-(1-isopropyl-1,2,3,6-tetrahydropyridin-4-yl)-1-methyl-6,7-dihydro-5H-benzo[c][1,2,3]triazolo[1,5-a]azepin-7-amine 2,2,2-trifluoroacetate], the Ki at BRD4 BD1 protein (setting [2]) was 1550 nM; on BRD4 BD2 protein (setting [2]), 65.8 nM.

As for `Cc1nnn2c1-c1ccc(C3=CCN(C4CCC4)CC3)cc1C(Nc1cccc(Cl)c1F)CC2` (stereo not shown) [RE30, N-(3-chloro-2-fluorophenyl)-9-(1-cyclobutyl-1,2,3,6-tetrahydropyridin-4-yl)-1-methyl-6,7-dihydro-5H-benzo[c][1,2,3]triazolo[1,5-a]azepin-7-amine 2,2,2-trifluoroacetate], the figures for the inhibitory constant (Ki) at BRD4 BD1 protein and on BRD4 BD2 protein were 413 nM and 30.2 nM, respectively.

Consider `Cc1nnn2c1-c1ccc(-c3cnn(C)c3)cc1[C@H](Nc1cccc(Cl)c1)CC2` [RE124, (R)—N-(3-chlorophenyl)-1-methyl-9-(1-methyl-1H-pyrazol-4-yl)-6,7-dihydro-5H-benzo[c][1,2,3]triazolo[1,5-a]azepin-7-amine], for which the Ki at BRD4 BD1 protein (setting [2]) is 9.92 ± 3.36 nM; at BRD4 BD2 protein (setting [2]), under 1 nM.

`Cc1nnn2c1-c1ccc(-c3cnn(C)c3)cc1[C@H](Nc1ccc(Cl)cc1)CC2` [RE127, (R)—N-(4-chlorophenyl)-1-methyl-9-(1-methyl-1H-pyrazo1-4-yl)-6,7-dihydro-5H-benzo[c][1,2,3]triazolo[1,5-a]azepin-7-amine]: the Ki was 4.15 ± 0.21 nM at BRD4 BD1 protein (setting [2]) and under 1 nM at BRD4 BD2 protein (setting [2]).

Take `CCn1cc(-c2ccc3c(c2)[C@H](Nc2ccc(Cl)cc2)CCn2nnc(C)c2-3)cn1` [RE136, (R)—N-(4-chlorophenyl)-9-(1-ethyl-1H-pyrazol-4-yl)-1-methyl-6,7-dihydro-5H-benzo[c][1,2,3]triazolo[1,5-a]azepin-7-amine]: the Ki is 2.66 ± 0.37 nM on BRD4 BD1 protein (setting [2]) and under 1 nM on BRD4 BD2 protein (setting [2]).

On to `Cc1nnn2c1-c1ccc(C3=CCNCC3)cc1C(Nc1cccc3[nH]ccc13)CC2` (stereo not shown) [WA78, 2,2,2-trifluoroacetate], for which the inhibitory constant (Ki) is 281 nM at BRD4 BD1 protein (setting [2]) and 19.8 nM at BRD4 BD2 protein (setting [2]).

For `Cc1nnn2c1-c1ccc(C3=CCNCC3)cc1C(Nc1ccc3[nH]ccc3c1)CC2` (stereo not shown) [WA82, N-(1H-indo1-5-yl)-1-methyl-9-(1,2,3,6-tetrahydropyridin-4-yl)-6,7-dihydro-5H-benzo[c][1,2,3]triazolo[1,5-a]azepin-7-amine 2,2,2-trifluoroacetate], the inhibition constant Ki at BRD4 BD1 protein (setting [2]) is 436 nM; on BRD4 BD2 protein (setting [2]), 53.6 nM.

`Cc1nnn2c1-c1ccc(C3=CCNCC3)cc1C(Nc1ccc3cc[nH]c3c1)CC2` (stereo not shown) [WA83, N-(1H-indo1-6-yl)-1-methyl-9-(1,2,3,6-tetrahydropyridin-4-yl)-6,7-dihydro-5H-benzo[c][1,2,3]triazolo[1,5-a]azepin-7-amine 2,2,2-trifluoroacetate]: the Ki on BRD4 BD1 protein (setting [2]) was 431 nM; on BRD4 BD2 protein (setting [2]), 88.6 nM.

For `Cc1nnn2c1-c1ccc(C3=CCN(C4CCCC4)CC3)cc1C(Nc1ccc(F)c(Cl)c1)CC2` (stereo not shown) [WYA10, N-(3-chloro-4-fluorophenyl)-9-(1-cyclopentyl-1,2,3,6-tetrahydropyridin-4-yl)-1-methyl-6,7-dihydro-5H-benzo[c][1,2,3]triazolo[1,5-a]azepin-7-amine 2,2,2-trifluoroacetate], the inhibitory constant (Ki) on BRD4 BD1 protein (setting [2]) is 719 nM; at BRD4 BD2 protein (setting [2]), 20.7 nM and 47.4 nM.

For the compound “N-(4-chlorophenyl)-9-(3,6-dihydro-2H-pyran-4-yl)-1-methyl-6,7-dihydro-5H-benzo[c][1,2,3]triazolo[1,5-a]azepin-7-amine [LD31]”, the Ki on BRD4 BD1 protein amounted to 39.1 nM; at BRD4 BD2 protein, 17.1 nM.
